Source: patent publication US10662195B2, “Protein kinase conjugates and inhibitors” (Celgene Avilomics Research, Inc., priority 2009, dated 2020)

Columns and labels:
[1] = molecular target: BTK (Homo sapiens, UniProt Q06187); test: Omnia assay for potency assessment against BTK; type: biochemical; conditions: 30 min pre-incubation; read-out: IC50_APP BTK
Excerpt: B. Omnia Assay Protocol for Potency Assessment Against BTK
Below describes the protocol using EGFR-WT and EGFR-T790M/L858R and the protocol BTK-optimized reagent conditions then follow.
The mechanics of the assay platform are best described by the vendor (Invitrogen, Carlsbad, Calif.) on their website at the following URL: http://www.invitrogen.com/content.cfm?pageid=11338 or http://www.invitrogen.com/site/us/en/home/Products-and-Services/Applications/Drug-Discovery/Target-and-Lead-Identification-and-Validation/KinaseBiology/KB-Misc/Biochemical-Assays/Omnia-Kinase-Assays.html.
Briefly, 10× stocks of EGFR-WT (PV3872) from Invitrogen and EGFR-T790M/L858R (40350) from BPS Bioscience, San Diego, Calif., 1.13×ATP (AS001A) and appropriate Tyr-Sox conjugated peptide substrates (KCZ1001) were prepared in 1× kinase reaction buffer consisting of 20 mM Tris, pH 7.5, 5 mM MgCl2, 1 mM EGTA, 5 mM β-glycerophosphate, 5% glycerol (10× stock, KB002A) and 0.2 mM DTT (DS001A). 5 μL of each enzyme were pre-incubated in a Corning (#3574) 384-well, white, non-binding surface microtiter plate (Corning, N.Y.) for 30 min. at 27° C. with a 0.5 μL volume of 50% DMSO and serially diluted compounds prepared in 50% DMSO. Kinase reactions were started with the addition of 45 μL of the ATP/Tyr-Sox peptide substrate mix and monitored every 30-90 seconds for 60 minutes at λex360/λem485 in a Synergy^4 plate reader from BioTek (Winooski, Vt.). At the conclusion of each assay, progress curves from each well were examined for linear reaction kinetics and fit statistics (R^2, 95% confidence interval, absolute sum of squares). Initial velocity (0 minutes to ˜30 minutes) from each reaction was determined from the slope of a plot of relative fluorescence units vs time (minutes) and then plotted against inhibitor concentration to estimate IC50 from log [Inhibitor] vs Response, Variable Slope model in GraphPad Prism from GraphPad Software (San Diego, Calif.).
The modified BTK-optimized reagent conditions for the above protocol are:
[BTK]=5 nM, [ATP]=[…], [Y5-Sox]=[…] (ATP KMapp˜[…]).
(§1) The reported IC50_APP and IC50 values are in units of nM.

[2] = molecular target: KDR (Homo sapiens, UniProt P35968); test: KDR Omnia continuous-read kinase assay; type: biochemical; design: purchased Invitrogen or BPS Bioscience PV3660 or 40301; conditions: 30 min pre-incubation; read-out: IC50_APP KDR
Procedure: A. KDR and FLT-3 Omnia Assay for Potency Assessment:
The protocol below describes a continuous-read kinase assay to measure inherent potency of Avila Therapeutics' compounds against active KDR and FLT-3 enzymes. The assay was performed substantially as described by the vendor (Invitrogen, Carlsbad, Calif.; http://www.invitrogen.com/content.cfm?pageid=11338.)
Briefly, 10× stocks of KDR from Invitrogen or BPS Bioscience (PV3660 or 40301) and FLT-3 (PV3182) enzymes, 1.13×ATP (AS001A) and Y9-Sox or Y12-Sox peptide substrates (KCZ1001) were prepared in 1× kinase reaction buffer consisting of 20 mM Tris, pH 7.5, 5 mM MgCl2, 1 mM EGTA, 5 mM β-glycerophosphate, 5% glycerol (10× stock, KB002A) and 0.2 mM DTT (DS001A). 5 μL of enzyme were pre-incubated in a Corning (#3574) 384-well, white, non-binding surface microtiter plate (Corning, N.Y.) for 30 min at 27° C. with a 0.5 μL volume of 50% DMSO and serially diluted compounds prepared in 50% DMSO. Kinase reactions were started with the addition of 45 μL of the ATP/Y9 or Y5-Sox peptide substrate mix and monitored every 30-90 seconds for 60 minutes at λex360/λem485 in a Synergy^4 plate reader from BioTek (Winooski, Vt.). At the conclusion of each assay, progress curves from each well were examined for linear reaction kinetics and fit statistics (R^2, 95% confidence interval, absolute sum of squares). Initial velocity (0 minutes to 20+ minutes) from each reaction was determined from the slope of a plot of relative fluorescence units vs time (minutes) and then plotted against inhibitor concentration to estimate IC50 from Log [Inhibitor] vs Response, Variable Slope model in GraphPad Prism from GraphPad Software (San Diego, Calif.). […]
as §1

Sequence of BTK (Q06187 whole entry): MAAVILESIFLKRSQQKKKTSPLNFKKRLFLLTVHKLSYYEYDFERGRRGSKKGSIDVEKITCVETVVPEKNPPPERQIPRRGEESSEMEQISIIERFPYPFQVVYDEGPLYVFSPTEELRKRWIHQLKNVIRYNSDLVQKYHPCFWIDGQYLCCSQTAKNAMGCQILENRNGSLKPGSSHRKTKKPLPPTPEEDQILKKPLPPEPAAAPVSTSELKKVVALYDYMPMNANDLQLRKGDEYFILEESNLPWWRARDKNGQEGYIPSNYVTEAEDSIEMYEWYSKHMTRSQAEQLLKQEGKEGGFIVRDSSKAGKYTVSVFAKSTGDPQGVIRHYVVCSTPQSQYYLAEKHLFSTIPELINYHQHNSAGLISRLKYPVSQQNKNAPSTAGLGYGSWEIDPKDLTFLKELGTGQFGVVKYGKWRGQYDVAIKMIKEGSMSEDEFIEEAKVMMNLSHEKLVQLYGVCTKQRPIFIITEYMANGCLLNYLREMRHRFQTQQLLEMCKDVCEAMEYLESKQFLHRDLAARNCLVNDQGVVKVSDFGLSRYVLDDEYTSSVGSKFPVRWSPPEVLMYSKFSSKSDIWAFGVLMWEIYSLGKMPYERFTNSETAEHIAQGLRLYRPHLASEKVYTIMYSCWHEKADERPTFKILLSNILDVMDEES
Sequence of KDR (P35968 20-1356): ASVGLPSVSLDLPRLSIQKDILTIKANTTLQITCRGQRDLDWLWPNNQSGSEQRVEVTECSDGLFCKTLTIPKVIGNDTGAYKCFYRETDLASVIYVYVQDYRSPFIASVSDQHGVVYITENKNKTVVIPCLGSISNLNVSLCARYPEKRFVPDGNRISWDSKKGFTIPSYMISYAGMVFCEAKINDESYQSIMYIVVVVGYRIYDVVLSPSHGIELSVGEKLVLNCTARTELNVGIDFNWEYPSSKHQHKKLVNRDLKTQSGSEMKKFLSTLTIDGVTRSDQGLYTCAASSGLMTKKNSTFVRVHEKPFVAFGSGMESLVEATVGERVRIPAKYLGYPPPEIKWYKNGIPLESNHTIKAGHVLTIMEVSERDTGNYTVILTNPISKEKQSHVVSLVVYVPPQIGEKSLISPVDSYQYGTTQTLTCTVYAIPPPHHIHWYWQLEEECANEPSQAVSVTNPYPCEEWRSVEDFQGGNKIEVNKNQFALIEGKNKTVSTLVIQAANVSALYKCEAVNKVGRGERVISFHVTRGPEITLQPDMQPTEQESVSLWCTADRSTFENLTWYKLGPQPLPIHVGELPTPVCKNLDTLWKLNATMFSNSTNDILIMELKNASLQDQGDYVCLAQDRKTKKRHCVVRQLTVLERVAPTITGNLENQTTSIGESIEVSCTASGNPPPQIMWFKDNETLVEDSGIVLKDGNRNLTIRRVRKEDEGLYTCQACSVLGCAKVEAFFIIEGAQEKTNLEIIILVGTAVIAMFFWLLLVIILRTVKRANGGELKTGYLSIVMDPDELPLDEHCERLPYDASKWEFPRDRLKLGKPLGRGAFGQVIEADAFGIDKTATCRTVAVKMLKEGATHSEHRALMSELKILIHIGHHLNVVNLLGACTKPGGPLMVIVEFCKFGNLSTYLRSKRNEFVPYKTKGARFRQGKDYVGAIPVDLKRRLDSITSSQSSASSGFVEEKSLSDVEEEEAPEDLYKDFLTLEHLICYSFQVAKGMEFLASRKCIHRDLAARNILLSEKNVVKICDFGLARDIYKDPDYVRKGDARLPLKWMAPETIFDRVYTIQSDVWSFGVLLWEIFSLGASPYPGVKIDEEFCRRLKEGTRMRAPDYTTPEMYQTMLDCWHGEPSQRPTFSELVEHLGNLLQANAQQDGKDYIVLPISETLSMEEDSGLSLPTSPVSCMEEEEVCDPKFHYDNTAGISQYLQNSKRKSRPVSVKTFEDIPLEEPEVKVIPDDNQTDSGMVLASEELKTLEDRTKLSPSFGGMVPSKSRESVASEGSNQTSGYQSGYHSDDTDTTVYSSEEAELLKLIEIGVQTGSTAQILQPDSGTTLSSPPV

C=CC(=O)N1CCC(Sc2nc(Nc3ncc(C#N)s3)cc(N3CCN(C)CC3)n2)CC1 [II-2, 2-(2-(1-Acryloylpiperidin-4-ylthio)-6-(4-methylpiperazin-1-yl)pyrimidin-4-ylamino)thiazole-5-carbonitrile]
IC50 [1]: 0.572 nM | IC50 [2]: 51.4 nM
